Data as given in publication PMC10724690, “Deciphering specificity and cross-reactivity in tachykinin NK1 and NK2 receptors” (The Journal of Biological Chemistry, 2023).
Where no end group is shown, it is not given here.

What was measured:
NK2R [1] = biological target: T1, NK2R (Homo sapiens, UniProt P21452); test: IP3 (IP accumulation) assay, wildtype NK2R; type: cell-based; conditions: for Emax: Fig 3a, alanine scan of NKA, dose response, IP accumulation ([3H]inositol, SPA) in transfected COS7 cells, 10 mM LiCl, 150 min 37 °C, four-parameter fit
T1 construct: host or cells: COS7
T1 sequence (P21452 1-398): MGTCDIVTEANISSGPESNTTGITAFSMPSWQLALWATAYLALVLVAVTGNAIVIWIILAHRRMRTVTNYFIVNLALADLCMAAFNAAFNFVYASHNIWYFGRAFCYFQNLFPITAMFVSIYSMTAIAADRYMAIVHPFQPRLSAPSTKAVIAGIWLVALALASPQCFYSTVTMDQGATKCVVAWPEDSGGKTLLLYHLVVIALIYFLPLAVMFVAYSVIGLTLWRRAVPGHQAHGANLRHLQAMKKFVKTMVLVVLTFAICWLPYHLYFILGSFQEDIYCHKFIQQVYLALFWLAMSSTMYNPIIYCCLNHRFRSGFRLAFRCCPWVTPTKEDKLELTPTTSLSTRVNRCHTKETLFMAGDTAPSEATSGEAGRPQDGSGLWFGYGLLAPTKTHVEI
Procedure: (§1) COS7 cells (derived from African green monkey kidney fibroblast and originally bought from ThermoFisher) were maintained in Dulbecco´s Modified Eagle´s Medium 1885 with GlutaMAX supplemented with 10% fetal bovine serum (Sigma-Aldrich), 100 units/ml penicillin and 100 μg/ml streptomycin at 37 °C with 10% CO2. COS7 cells were plated in either clear-, white-, or white with clear bottom 96-well plates that were coated with poly-D-lysine (Sigma-Aldrich) 30 min prior to cell seeding (20.000 cells/well). The following day plates were transiently transfected using calcium precipitation with 200 ng/well DNA in a culture medium with the addition of 100 μM (final concentration) Chloroquine. Transfection was stopped 5 h later with the addition of a fresh maintenance medium. Fig. […] COS7 cells seeded in clear 96-well plates were incubated with 0.5 μCi/ml myo [3H]inositol (PerkinElmer) in 100 μl growth medium over night following the transfection. The subsequent day cells were washed twice with 200 μl/well HBSS (GIBCO, Life Technologies) and pre-incubated for 5 min at 37 °C with 100 μl/well HBSS buffer supplemented with 10 mM LiCl. Ligand addition was followed by 150 min incubation at 37 °C. To stop ligand incubation, cells were lysed with 40 μl 10 mM formic acid followed by 30 min incubation on ice. 35 μl of the lysate was transferred to white 96-well plates together with 60 μl of 1:8 diluted YSi SPA scintillation beads (PerkinElmer). Plates were sealed and vigorously shaken for 15 min followed by 5 min centrifugation at 1500 rpm. Measurements (scintillation) were recorded on a Microbeta (PerkinElmer) after a 4 h delay and determinations were made in duplicates. All dose-response curves have been calculated using Prism 10 software (GraphPad Software) non-linear regression with four parameters. All data are shown as mean ± SEM unless stated otherwise and consist of two technical replicates from three biological replicates.

NK1R-R177Q [2] = biological target: T2, NK1R-R177Q (Homo sapiens, UniProt P25103, R177Q); test: IP3 activation assay, NK1R-R177Q; type: cell-based; conditions: COS-7
T2 construct: host or cells: COS7
T2 sequence (P25103 whole entry R177Q): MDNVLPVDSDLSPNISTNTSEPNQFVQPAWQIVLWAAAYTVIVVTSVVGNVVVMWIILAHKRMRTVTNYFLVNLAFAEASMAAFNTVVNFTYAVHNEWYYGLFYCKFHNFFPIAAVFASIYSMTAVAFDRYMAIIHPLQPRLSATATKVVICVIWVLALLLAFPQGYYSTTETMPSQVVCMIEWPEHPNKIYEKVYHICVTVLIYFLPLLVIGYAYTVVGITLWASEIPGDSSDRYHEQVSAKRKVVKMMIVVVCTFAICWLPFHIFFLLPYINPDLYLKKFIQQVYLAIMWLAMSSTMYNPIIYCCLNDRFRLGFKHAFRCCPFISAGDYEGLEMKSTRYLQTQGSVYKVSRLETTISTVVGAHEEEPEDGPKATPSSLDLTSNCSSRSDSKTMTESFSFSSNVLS
Procedure: as §1, with “Ligand addition was followed by 150 min incubation at 37 °C. To stop ligand incubation, cells were lysed with 40 μl 10 mM formic acid followed by 30 min incubation on ice. 35 μl of the lysate was transferred to white 96-well plates together with 60 μl of 1:8 diluted YSi SPA scintillation beads (PerkinElmer). Plates were sealed and vigorously shaken for 15 min followed by 5 min centrifugation at 1500 rpm.” left out, “All data are shown as mean ± SEM unless stated otherwise and consist of two technical replicates from three biological replicates.” left out

NK1R [3] = biological target: T3, NK1R (Homo sapiens, UniProt P25103); test: BRET-based cAMP assay, wildtype NK1R; type: cell-based; conditions: COS-7, Fig 7d, NK1R WT, ligand NKA (by identity with Fig 5b values)
T3 construct: host or cells: COS7
T3 sequence (P25103 whole entry): as the sequence (P25103 whole entry R177Q) above, with Q177R counted along it
Procedure: (§2) COS7 cells (derived from African green monkey kidney fibroblast and originally bought from ThermoFisher) were maintained in Dulbecco´s Modified Eagle´s Medium 1885 with GlutaMAX supplemented with 10% fetal bovine serum (Sigma-Aldrich), 100 units/ml penicillin and 100 μg/ml streptomycin at 37 °C with 10% CO2. COS7 cells were plated in either clear-, white-, or white with clear bottom 96-well plates that were coated with poly-D-lysine (Sigma-Aldrich) 30 min prior to cell seeding (20.000 cells/well). The following day plates were transiently transfected using calcium precipitation with 200 ng/well DNA in a culture medium with the addition of 100 μM (final concentration) Chloroquine. Transfection was stopped 5 h later with the addition of a fresh maintenance medium. Fig. […] The intracellular level of cAMP was monitored in real-time using bioluminescence resonance energy transfer (BRET). This was achieved by implementing a construct consisting of a cAMP binding protein (Exchange protein activated by cAMP (Epac)) which has been flanked by a BRET pair consisting of Renilla luciferase (Rluc) and yellow fluorescent protein (YFP). […] The BRET signal was calculated as the ratio of emission intensity at 535 nm (citrine) to the emission intensity at 475 nm (luciferase). […] All dose-response curves have been calculated using Prism 10 software (GraphPad Software) non-linear regression with four parameters. […]

NK1R-R177K = biological target: T4, NK1R-R177K (Homo sapiens, UniProt P25103, R177K); test: BRET-based cAMP assay, NK1R-R177K; type: cell-based; conditions: COS-7
T4 construct: host or cells: COS7
T4 sequence (P25103 whole entry R177K): as the sequence (P25103 whole entry R177Q) above, with Q177K counted along it
Procedure: as §2

NK1R [4] = biological target: T3, NK1R; test: IP3 (IP accumulation) assay, wildtype NK1R; type: cell-based
Procedure: as §1, with “Ligand addition was followed by 150 min incubation at 37 °C. To stop ligand incubation, cells were lysed with 40 μl 10 mM formic acid followed by 30 min incubation on ice. 35 μl of the lysate was transferred to white 96-well plates together with 60 μl of 1:8 diluted YSi SPA scintillation beads (PerkinElmer). Plates were sealed and vigorously shaken for 15 min followed by 5 min centrifugation at 1500 rpm.” left out, “All data are shown as mean ± SEM unless stated otherwise and consist of two technical replicates from three biological replicates.” left out

NK1R-R177Q [5] = biological target: T2, NK1R-R177Q; test: BRET-based cAMP assay, NK1R-R177Q; type: cell-based; conditions: COS-7
Procedure: as §2

NK2R [6] = biological target: T1, NK2R; conditions: ref [19], cited from earlier work
From the text: In sharp contrast, NKA-D4 and NKA6-10 are found to be critical for activity.

Row | Compound | EC50 (NK2R [1]) | Emax (NK2R [1]) | further results
1 | CSCC[C@H](NC(=O)[C@H](CC(C)C)NC(=O)CNC(=O)[C@@H](NC(=O)[C@H](Cc1ccccc1)NC(=O)[C@H](CO)NC(=O)[C@H](CC(=O)O)NC(=O)[C@@H](NC(=O)[C@H](CCCCN)NC(=O)[C@H](C)N)[C@@H](C)O)C(C)C)C(N)=O [Ala1] | 0.715 nM | – | –
2 | CSCC[C@H](NC(=O)[C@H](CC(C)C)NC(=O)CNC(=O)[C@@H](NC(=O)[C@H](Cc1ccccc1)NC(=O)[C@H](CO)NC(=O)[C@H](CC(=O)O)NC(=O)[C@@H](NC(=O)[C@H](CCCCN)NC(=O)[C@@H](N)Cc1c[nH]cn1)[C@@H](C)O)C(C)C)C(N)=O [NKA, neurokinin A] | – | – | Emax (NK1R-R177Q [2]): 59.3%; Emax (NK1R [3]): 109%; Emax (NK1R-R177K): 10.7%; Emax (NK1R [4]; COS-7, Fig 7c, IP3 activation assay, NK1R WT, ligand NKA (by identity with Fig 5a values)): 100%; Emax (NK1R [4]; COS-7, Fig 5a, IP3 assay, NK1R WT in COS7 cells): 100%; Emax (NK1R-R177Q [5]): 13.1%
3 | Ala4: NKA variant of the alanine scan, alanine in position 4 (Asp) (HKTASFVGLM; ends and bridges not checked; UniProt P20366 98-107, looked up, variant D4A) | – | 1066 | –
4 | Ala7: NKA variant of the alanine scan, alanine in position 7 (HKTDSFAGLM; ends and bridges not checked; UniProt P20366 98-107, looked up, variant V7A) | – | 178 | –
5 | HATDSFVGLM-NH2 [Ala2] | 0.68 nM | – | –
6 | HKADSFVGLM-NH2 [Ala3] | 0.598 nM | – | –
7 | HKTDAFVGLM-NH2 [Ala5] | 25.9 nM | – | –
8 | KDSFVGL(γ-lactam)M-NH2 [GR64349] | – | – | selectivity (NK2R [6]; NK2R agonist selectivity): most selective NK2R agonist reported so far; agonist character (NK2R [6]): full agonist

Further lines, with some results ahead:

Row | EC50 (NK2R [1]) | Emax (NK2R [1]) | Compound | further results
9 | – | 136 | Ala9: NKA variant of the alanine scan, alanine in position 9 (HKTDSFVGAM; ends and bridges not checked; UniProt P20366 98-107, looked up, variant L9A) | –
10 | 31.9 nM | – | HKTDSFVGLA-NH2 [Ala10] | –
